Laboratory results: the NIST ThermoML archive (doi:10.1016/j.jct.2018.02.022)
“And” between values parts separate entries of the source, which are not always exact repeats. Equal values may be shown once.

Assay: xn = mol fraction of the nth substance listed
Conditions: 92.3 kPa, Liquid; for viscosity: Concentric cylinders viscometry; for speed of sound: Frequency=3 MHz, Single path-length method; for mass density: Vibrating tube method

CCO [ethanol] + O
Conditions	mass density, 293.15 K	mass density, 298.15 K	speed of sound, 293.15 K [m/s]	speed of sound, 298.15 K [m/s]	viscosity, 293.15 K [mPa·s]	viscosity, 298.15 K [mPa·s]
x1 = 0.0024	997.039 kg/m3	995.871 kg/m3	1487.7	1501.5	–	–
x1 = 0.0201	989.54 kg/m3	988.31 kg/m3	–	–	1.247	1.098
x1 = 0.0202	989.382 kg/m3	988.159 kg/m3	1522.5	1532.7	–	–
x1 = 0.0295	985.977 kg/m3	984.669 kg/m3	1540	1548.2	–	–
x1 = 0.0366	983.574 kg/m3	982.196 kg/m3	1553	1559.6	–	–
x1 = 0.0408	982.27 kg/m3	980.85 kg/m3	–	–	1.529	1.336
x1 = 0.0497	979.54 kg/m3	977.99 kg/m3	–	–	1.648	1.432
x1 = 0.0513	978.913 kg/m3	977.287 kg/m3	1578	1581.3	–	–
x1 = 0.06	976.51 kg/m3 and 976.452 kg/m3	974.31 kg/m3 and 974.729 kg/m3	1590.8	1592.1	1.821	1.551
x1 = 0.0707	973.538 kg/m3	971.631 kg/m3	1604.2	1603.2	–	–
x1 = 0.0796	971.24 kg/m3	969.17 kg/m3	–	–	2.045	1.748
x1 = 0.0801	971.049 kg/m3	968.969 kg/m3	1613.8	1610.7	–	–
x1 = 0.0904	968.313 kg/m3	966.039 kg/m3	1621.5	1616.4	–	–
x1 = 0.0997	965.87 kg/m3	963.419 kg/m3	1625.7	1619	–	–
x1 = 0.1004	963.75 kg/m3	961.4 kg/m3	–	–	2.311	1.947
x1 = 0.1294	957.918 kg/m3	954.963 kg/m3	1623.8	1613.3	–	–
x1 = 0.1497	952.184 kg/m3	948.951 kg/m3	1611.9	1600.1	–	–
x1 = 0.1499	951.92 kg/m3	948.9 kg/m3	–	–	2.72	2.242
x1 = 0.1984	935.19 kg/m3	931.84 kg/m3	–	–	2.857	2.371
x1 = 0.2008	937.088 kg/m3	933.41 kg/m3	1566.6	1553.7	–	–
x1 = 0.2499	922.7 kg/m3	918.95 kg/m3	–	–	2.864	2.429
x1 = 0.2503	922.612 kg/m3	918.708 kg/m3	1520.2	1507	–	–
x1 = 0.2998	908.897 kg/m3	904.858 kg/m3	1478.2	1464.5	–	–
x1 = 0.3016	908.77 kg/m3	904.86 kg/m3	–	–	2.793	2.339
x1 = 0.3499	896.37 kg/m3	892.28 kg/m3	–	–	2.681	2.263
x1 = 0.3507	895.841 kg/m3	891.711 kg/m3	1440.4	1426.2	–	–
x1 = 0.399	884.54 kg/m3	880.34 kg/m3	–	–	2.55	2.17
x1 = 0.3992	884.433 kg/m3	880.239 kg/m3	1408.9	1394.2	–	–
x1 = 0.4495	873.57 kg/m3	869.34 kg/m3	–	–	2.405	2.066
x1 = 0.4514	873.258 kg/m3	869.012 kg/m3	1379	1363.9	–	–
x1 = 0.4989	864.28 kg/m3	860.04 kg/m3	–	–	2.291	1.956
x1 = 0.5002	863.248 kg/m3	858.963 kg/m3	1353.5	1337.9	–	–
x1 = 0.5494	854.117 kg/m3	849.801 kg/m3	1330.4	1314.5	–	–
x1 = 0.5495	854.95 kg/m3	850.72 kg/m3	–	–	2.177	1.88
x1 = 0.6018	845.002 kg/m3	840.665 kg/m3	1307.8	1291.5	–	–
x1 = 0.6067	844.7 kg/m3	840.19 kg/m3	–	–	1.997	1.744
x1 = 0.6503	837.27 kg/m3 and 837.196 kg/m3	832.95 kg/m3 and 832.839 kg/m3	1288.5	1271.8	1.895	1.659
x1 = 0.6956	830.42 kg/m3	826.05 kg/m3	–	–	1.788	1.572
x1 = 0.7006	829.434 kg/m3	825.07 kg/m3	1269.1	1252.3	–	–
x1 = 0.7355	824.262 kg/m3	819.907 kg/m3	1256	1239.1	–	–
x1 = 0.75	822.4 kg/m3	818.03 kg/m3	–	–	1.68	1.483
x1 = 0.7843	817.86 kg/m3	813.49 kg/m3	–	–	1.612	1.43
x1 = 0.7965	815.831 kg/m3	811.475 kg/m3	1234.1	1217	–	–
x1 = 0.8433	809.567 kg/m3	805.219 kg/m3	1217.4	1200.2	–	–
x1 = 0.8475	809.97 kg/m3	805.63 kg/m3	–	–	1.518	1.342
x1 = 0.8864	804.22 kg/m3	799.93 kg/m3	–	–	1.42	1.271
x1 = 0.892	803.132 kg/m3	798.808 kg/m3	1199.7	1182.5	–	–
x1 = 0.9093	800.938 kg/m3	796.615 kg/m3	1193.5	1176.3	–	–
x1 = 0.9207	799.51 kg/m3	795.193 kg/m3	1189.5	1172.3	–	–
x1 = 0.929	798.49 kg/m3	794.19 kg/m3	–	–	1.341	1.204
x1 = 0.9307	798.225 kg/m3	793.91 kg/m3	1185.8	1168.6	–	–
x1 = 0.9398	797.133 kg/m3	792.821 kg/m3	1182.6	1165.4	–	–
x1 = 0.9483	796.043 kg/m3	791.735 kg/m3	1179.4	1162.3	–	–
x1 = 0.9603	794.596 kg/m3	790.291 kg/m3	1175.3	1158.1	–	–
x1 = 0.9702	793.374 kg/m3	789.073 kg/m3	1171.7	1154.5	–	–
x1 = 0.9801	792.038 kg/m3	787.741 kg/m3	1168.5	1151.3	–	–
x1 = 0.9895	791.076 kg/m3	786.779 kg/m3	1165	1147.8	–	–
x1 = 1	789.547 kg/m3	785.26 kg/m3	1160.7	1143.5	1.202	1.091
